For assay [1], the target named is T1, human kappa opioid receptor (hKOR) (Homo sapiens, UniProt P41145).
T1 construct: expressed in transfected cells; host or cells: HEK-293 cells, transient transfection with Fugene6
Kind of assay: cell-based. As to conditions: for Emax: HEK293, read-out: hKOR Efficacy(%).

The target in assay [2] is T2, mouse kappa opioid receptor (mKOR) (Mus musculus, UniProt P33534).
T2 construct: Stimulation of Endogenous Mouse Kappa-Opioid Receptor in R1.G1 Cells; host or cells: R1.G1 mouse thymoma cells
In words: cell-based. As to conditions: for Emax: read-out: mKOR Efficacy(%).

Square brackets hold non-standard residues; d marks the D form. Peptide text beside a SMILES is read from it. * marks the point of attachment. Homopiperazine(4-amidino) = N=C(N)N1CCCN(*)CC1; d(hArg) = N=C(N)NCCCC[C@@H](N)C(=O)O; dAgb = N=C(N)NCC[C@@H](N)C(=O)O; Homopiperazinyl = C1CNCCN(*)C1; dAgp = N=C(N)NC[C@@H](N)C(=O)O; dNle = CCCC[C@@H](N)C(=O)O; dDab = NCC[C@@H](N)C(=O)O; Morpholide = C1CN(*)CCO1; Inp = O=C(O)C1CCNCC1

Broadly, the EC50 is the concentration that produces a half-maximal response.

T2 sequence (P33534 whole entry): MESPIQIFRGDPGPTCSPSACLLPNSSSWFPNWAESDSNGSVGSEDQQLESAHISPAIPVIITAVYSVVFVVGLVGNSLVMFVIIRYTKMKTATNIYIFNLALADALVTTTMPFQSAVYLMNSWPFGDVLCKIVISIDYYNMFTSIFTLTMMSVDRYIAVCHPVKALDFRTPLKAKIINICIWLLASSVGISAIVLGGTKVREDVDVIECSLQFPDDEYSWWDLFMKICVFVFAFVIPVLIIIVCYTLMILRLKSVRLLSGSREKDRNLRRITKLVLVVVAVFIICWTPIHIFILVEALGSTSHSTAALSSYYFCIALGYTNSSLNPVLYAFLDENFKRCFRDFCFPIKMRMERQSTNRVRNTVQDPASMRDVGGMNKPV
T1 sequence (P41145 whole entry): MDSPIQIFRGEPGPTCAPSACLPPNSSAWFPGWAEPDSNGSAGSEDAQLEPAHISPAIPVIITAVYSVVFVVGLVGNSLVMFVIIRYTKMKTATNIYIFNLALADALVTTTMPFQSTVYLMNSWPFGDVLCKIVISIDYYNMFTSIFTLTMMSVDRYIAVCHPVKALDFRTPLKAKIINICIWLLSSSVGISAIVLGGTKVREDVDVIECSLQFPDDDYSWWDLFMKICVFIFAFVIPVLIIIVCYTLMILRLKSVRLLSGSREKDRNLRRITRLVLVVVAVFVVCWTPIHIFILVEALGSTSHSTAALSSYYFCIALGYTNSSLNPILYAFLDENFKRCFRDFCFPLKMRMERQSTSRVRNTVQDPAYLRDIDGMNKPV

For the compound `CC(C)C[C@@H](NC(=O)[C@@H](Cc1ccccc1)NC(=O)[C@H](N)Cc1ccccc1)C(=O)N[C@H](CCCCNC(=N)N)C(=O)N1CCCN(C(=N)N)CC1` [Compound (16), D-Phe-D-Phe-D-Leu-D-Har-[4-amidinohomopiperazine amide]] (H-[dF][dF][dL][d(hArg)]-{Homopiperazine(4-amidino)}), the EC50 came to 0.11 nM in assay [1] and 0.021 nM in assay [2]. Moreover, the values for the Emax in assay [1] and in assay [2] were 96% and 105%, respectively.

Take `CC(C)C[C@@H](NC(=O)[C@@H](Cc1ccccc1)NC(=O)[C@H](N)Cc1ccccc1)C(=O)N[C@H](CCCCNC(C)C)C(=O)N1CCCN(C(=N)N)CC1` [Compound (17), D-Phe-D-Phe-D-Leu-(ε-iPr)D-Lys-[4-Amidinohomopiperazine amide]]: in assay [1], the response was half-maximal at 0.1 nM (EC50) and the Emax came out at 102%. Also, in assay [2], the EC50 was 0.039 nM and the Emax turned out to be 103%.

Turning to `CC(C)C[C@@H](NC(=O)[C@@H](Cc1ccccc1)NC(=O)[C@H](N)Cc1ccccc1)C(=O)N[C@H](CNC(=N)N)C(=O)N1CCCN(C(=N)N)CC1` [Compound (18), D-Phe-D-Phe-D-Leu-(β-amidino)D-Dap-[4-amidinohomopiperazine amide]] (H-[dF][dF][dL][dAgp]-{Homopiperazine(4-amidino)}), in assay [1], a half-maximal response (EC50) required 1.15 nM and the Emax was determined as 93%. Also, in assay [2], the midpoint of the response, the EC50, lay at 1.02 nM and the Emax amounted to 103%.

In the case of `CC(C)C[C@@H](NC(=O)[C@@H](Cc1ccccc1)NC(=O)[C@H](N)Cc1ccccc1)C(=O)N[C@H](CNC(=N)N)C(=O)N1CCCNCC1` [Compound (20), D-Phe-D-Phe-D-Leu-(β-amidino)D-Dap-[homopiperazine amide]] (H-[dF][dF][dL][dAgp]-Homopiperazinyl), in assay [1], the response was half-maximal at 0.39 nM (EC50) and the Emax came out at 84%. Also, in assay [2], the midpoint of the response, the EC50, lay at 0.491 nM and the Emax came out at 102%.

For the compound `CCCC[C@@H](NC(=O)[C@@H](Cc1ccccc1)NC(=O)[C@H](N)Cc1ccccc1)C(=O)N[C@H](CNC(=N)N)C(=O)N1CCCNCC1` [Compound (21), D-Phe-D-Phe-D-Nle-(β-amidino)D-Dap-[homopiperazine amide]] (H-[dF][dF][dNle][dAgp]-Homopiperazinyl), the EC50 in assay [1] stood at 1.06 nM; in assay [2], 0.732 nM. Further, the Emax in assay [1] stood at 99%; in assay [2] it was 103%.

For the compound `CC(C)C[C@@H](NC(=O)[C@@H](Cc1ccccc1)NC(=O)[C@H](N)Cc1ccccc1)C(=O)N[C@H](CCN)C(=O)N1CCCN(C(=N)N)CC1` [Compound (22), D-Phe-D-Phe-D-Leu-D-Dbu-[4-amidinohomopiperazine amide]] (H-[dF][dF][dL][dDab]-{Homopiperazine(4-amidino)}), in assay [1], it took 0.18 nM to reach a half-maximal effect (EC50) and the Emax is 86%. In assay [2], the EC50 was 0.095 nM and the Emax is 103%.

Turning to `CC(C)C[C@@H](NC(=O)[C@@H](Cc1ccccc1)NC(=O)[C@H](N)Cc1ccccc1)C(=O)N[C@H](CCNC(=N)N)C(=O)N1CCCN(C(=N)N)CC1` [Compound (23), D-Phe-D-Phe-D-Leu-D-Nar-[4-amidinohomopiperazine amide]] (H-[dF][dF][dL][dAgb]-{Homopiperazine(4-amidino)}), in assay [1], a half-maximal effect (EC50) was put at 0.17 nM and the Emax came out at 84%. In assay [2], the EC50 was determined as 0.091 nM and the Emax stood at 104%.

With `CC(C)C[C@@H](NC(=O)[C@@H](Cc1ccccc1)NC(=O)[C@H](N)Cc1ccccc1)C(=O)N[C@H](CCCNC(=N)N)C(=O)N1CCCN(C(=N)N)CC1` [Compound (24), D-Phe-D-Phe-D-Leu-D-Arg-[4-amidinohomopiperazine amide]] (H-[dF][dF][dL][dR]-{Homopiperazine(4-amidino)}), in assay [1], it took 0.09 nM to reach a half-maximal effect (EC50) and the Emax amounted to 93%. Besides, in assay [2], a half-maximal response (EC50) required 0.036 nM and the Emax was 97%.

`CC(C)C[C@@H](NC(=O)[C@@H](Cc1ccccc1)NC(=O)[C@H](N)Cc1ccccc1)C(=O)N[C@H](CCCCN)C(=O)N1CCC2(CCNC2=O)CC1` [Compound (25), D-Phe-D-Phe-D-Leu-D-Lys-[2,8-diazaspiro[4,5]decan-1-one amide]]: the EC50 is 0.0027 nM in assay [1] and 0.0314 nM in assay [2]. Further, the Emax in assay [1] was found to be 101%; in assay [2] it was 82%.

Turning to `CC(C)C[C@@H](NC(=O)[C@@H](Cc1ccccc1)NC(=O)[C@H](N)Cc1ccccc1)C(=O)N[C@H](CCCCN)C(=O)N1CCC2(CCN(C)C2=O)CC1` [Compound (26), D-Phe-D-Phe-D-Leu-D-Lys-[2-methyl-2,8-diazaspiro[4,5]decan-1-one amide]], in assay [1], a half-maximal effect (EC50) was put at 0.0083 nM and the Emax came to 99%. In addition, in assay [2], the response was half-maximal at 0.0194 nM (EC50) and the Emax was found to be 86%.

As to `CC(C)C[C@@H](NC(=O)[C@@H](Cc1ccccc1)NC(=O)[C@H](N)Cc1ccccc1)C(=O)N[C@H](CCCCN)C(=O)N1CCC2(CC1)NC(=O)NC2=O` [Compound (27), D-Phe-D-Phe-D-Leu-D-Lys-[1,3,8-triazaspiro[4,5]decane-2,4-dione amide]], in assay [1], the EC50 was less than 0.001 nM and the Emax was 88%. Further, in assay [2], the EC50 stood at 0.0056 nM and the Emax is 87%.

Take `CC(C)C[C@@H](NC(=O)[C@@H](Cc1ccccc1)NC(=O)[C@H](N)Cc1ccccc1)C(=O)N[C@H](CCCCN)C(=O)N1CCC(n2c(=O)[nH]c3cc(Cl)ccc32)CC1` [Compound (28), D-Phe-D-Phe-D-Leu-D-Lys-[5-chloro-1-(piperidin-4-yl)-1H-benzo[d]imidazol-2(3)H-one amide]]: the values for the Emax in assay [1] and in assay [2] were 100% and 83%, respectively.

On to `CC(C)C[C@@H](NC(=O)[C@@H](Cc1ccccc1)NC(=O)[C@H](N)Cc1ccccc1)C(=O)N[C@H](CCCCN)C(=O)N1CCC(C(=O)N2CCOCC2)CC1` [Compound (29), D-Phe-D-Phe-D-Leu-D-Lys-[morpholino(piperidin-4-yl)methanone amide]] (H-[dF][dF][dL][dK][Inp]-Morpholide), for which the EC50 in assay [1] worked out at 0.0145 nM; in assay [2], 0.0464 nM. Further, the Emax in assay [1] was found to be 100%; in assay [2], 86%.

Turning to `CC(C)C[C@@H](NC(=O)[C@@H](Cc1ccccc1)NC(=O)[C@H](N)Cc1ccccc1)C(=O)N[C@H](CCCCN)C(=O)N1CCC(n2cc(-c3ccccc3)[nH]c2=O)CC1` [Compound (30)], in assay [1], the Emax worked out at 95%. Moreover, in assay [2], the EC50 stood at 0.129 nM and the Emax stood at 88%.

With `Cc1nnc(C)n1C1CCN(C(=O)[C@@H](CCCCN)NC(=O)[C@@H](CC(C)C)NC(=O)[C@@H](Cc2ccccc2)NC(=O)[C@H](N)Cc2ccccc2)CC1` [Compound (31), D-Phe-D-Phe-D-Leu-D-Lys-[4-(3,5-dimethyl-4H-1,2,4-triazol-4-yl)piperidine amide]], in assay [1], the EC50 turned out to be 0.0042 nM and the Emax is 95%. Moreover, in assay [2], the EC50 was determined as 0.0216 nM and the Emax stood at 86%.

Take `CC(C)C[C@@H](NC(=O)[C@@H](Cc1ccccc1)NC(=O)[C@H](N)Cc1ccccc1)C(=O)N[C@H](CCCCN)C(=O)N1CCC2(CC1)C(=O)NCN2c1ccccc1` [Compound (33), D-Phe-D-Phe-D-Leu-D-Lys-[1-phenyl-1,3,8-triazaspiro[4.5]decan-4-one amide]]: the Emax in assay [1] stood at 101%; in assay [2], 86%.

Source of the values: patent publication US7713937B2, “Synthetic peptide amides and dimeric forms thereof” (Cara Therapeutics, Inc., priority 2006, dated 2010).
